The source of these data is US20250152585A1, “PHARMACEUTICAL COMPOUND” (Duke Street Bio Limited, priority 2022, published 2025).

T2 sequence (Q9UGN5 whole entry, the tested form may be a part): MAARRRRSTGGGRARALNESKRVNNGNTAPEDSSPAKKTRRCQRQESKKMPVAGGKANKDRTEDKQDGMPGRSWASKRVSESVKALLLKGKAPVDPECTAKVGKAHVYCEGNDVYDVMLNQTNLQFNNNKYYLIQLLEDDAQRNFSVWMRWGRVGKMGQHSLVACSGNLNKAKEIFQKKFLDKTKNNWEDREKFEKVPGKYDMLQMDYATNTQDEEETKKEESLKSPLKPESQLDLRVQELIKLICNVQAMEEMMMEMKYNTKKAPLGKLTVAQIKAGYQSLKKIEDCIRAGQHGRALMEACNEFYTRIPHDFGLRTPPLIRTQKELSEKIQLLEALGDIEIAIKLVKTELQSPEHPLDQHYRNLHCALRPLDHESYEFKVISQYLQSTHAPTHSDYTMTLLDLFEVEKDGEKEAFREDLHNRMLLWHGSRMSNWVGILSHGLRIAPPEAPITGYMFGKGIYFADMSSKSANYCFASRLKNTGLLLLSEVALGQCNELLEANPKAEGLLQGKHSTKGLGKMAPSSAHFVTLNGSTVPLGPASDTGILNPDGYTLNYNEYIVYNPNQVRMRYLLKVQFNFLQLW

For one experiment, the target named is T1, full length N-terminally FLAG-tagged PARP1 (Homo sapiens, UniProt P09874). Nature of the experiment: PARP1 biochemical DELFIA assay (auto-PARylation). Further details: recombinant full length human N-terminally FLAG-tagged PARP1. The conditions noted are these: binned IC50, PARP1 biochemical DELFIA assay.
T1 sequence (P09874 whole entry): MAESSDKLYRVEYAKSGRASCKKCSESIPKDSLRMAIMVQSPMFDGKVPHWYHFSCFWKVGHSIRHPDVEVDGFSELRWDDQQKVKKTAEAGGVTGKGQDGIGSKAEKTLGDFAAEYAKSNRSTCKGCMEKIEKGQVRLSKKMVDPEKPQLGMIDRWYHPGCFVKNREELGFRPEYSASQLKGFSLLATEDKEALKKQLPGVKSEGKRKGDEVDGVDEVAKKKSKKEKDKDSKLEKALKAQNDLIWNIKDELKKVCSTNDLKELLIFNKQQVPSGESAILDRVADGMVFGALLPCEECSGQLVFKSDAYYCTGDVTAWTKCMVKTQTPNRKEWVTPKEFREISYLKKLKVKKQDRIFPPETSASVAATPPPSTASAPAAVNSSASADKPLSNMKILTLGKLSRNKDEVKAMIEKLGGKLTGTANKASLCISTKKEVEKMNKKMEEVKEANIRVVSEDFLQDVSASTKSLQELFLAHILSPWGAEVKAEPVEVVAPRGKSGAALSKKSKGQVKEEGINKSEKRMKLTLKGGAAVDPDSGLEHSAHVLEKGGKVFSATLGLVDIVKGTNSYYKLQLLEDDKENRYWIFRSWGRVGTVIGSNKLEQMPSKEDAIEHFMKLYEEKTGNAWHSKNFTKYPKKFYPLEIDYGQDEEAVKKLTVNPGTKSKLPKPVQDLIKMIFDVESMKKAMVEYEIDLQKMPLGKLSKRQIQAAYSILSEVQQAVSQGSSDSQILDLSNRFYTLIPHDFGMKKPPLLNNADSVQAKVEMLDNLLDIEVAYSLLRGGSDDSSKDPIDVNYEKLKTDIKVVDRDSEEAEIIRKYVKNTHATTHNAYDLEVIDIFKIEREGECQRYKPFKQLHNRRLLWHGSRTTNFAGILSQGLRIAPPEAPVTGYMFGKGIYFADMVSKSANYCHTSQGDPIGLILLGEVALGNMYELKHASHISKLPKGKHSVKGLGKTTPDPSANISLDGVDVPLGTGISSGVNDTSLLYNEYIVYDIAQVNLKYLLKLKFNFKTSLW
As to `O=C(NCCF)c1ccc(N2CCC(N3CCC(c4nc5ccccc5c(=O)[nH]4)C3)CC2)cn1` (single isomer, unassigned) [Compound 117b], the IC50 was less than 10 nM.

Regarding `CCc1nc(C(=O)NC)ccc1N1CCC(N2CCC(c3nc4ccccc4c(=O)[nH]3)C2)CC1` (single isomer, unassigned) [Compound 118a], the IC50 is less than 10 nM.

Take `CCc1nc(C(=O)NC)ccc1N1CCC(N2CCC(c3nc4ccccc4c(=O)[nH]3)C2)CC1` (single isomer, unassigned) [Compound 118b]: the IC50 was 10 to 100 nM.

Take `CNC(=O)c1ccc(N2CCC(N3CCC(c4nc5c(F)cccc5c(=O)[nH]4)C3)CC2)cn1` (single isomer, unassigned) [Compound 121a]: the IC50 lay in the range of 10 to 100 nM.

`CNC(=O)c1ccc(N2CCC(N3CCC(c4nc5c(F)cccc5c(=O)[nH]4)C3)CC2)cn1` (single isomer, unassigned) [Compound 121b]: the IC50 was less than 10 nM.

As to `CCNC(=O)c1ccc(N2CCC(N3CCCC(c4nc5ccccc5c(=O)[nH]4)C3)CC2)cn1` (single isomer, unassigned) [Compound 122a], the IC50 was less than 10 nM.

With `CCNC(=O)c1ccc(N2CCC(N3CCCC(c4nc5ccccc5c(=O)[nH]4)C3)CC2)cn1` (single isomer, unassigned) [Compound 122b], the IC50 lay within 10 to 100 nM.

With `NC(=O)c1ccc(N2CCC(N3CCC(c4nc5ccccc5c(=O)[nH]4)C3)CC2)cn1` (single isomer, unassigned) [Compound 123a], the IC50 was in the range of 10 to 100 nM.

For `NC(=O)c1ccc(N2CCC(N3CCC(c4nc5ccccc5c(=O)[nH]4)C3)CC2)cn1` (single isomer, unassigned) [Compound 123b], the IC50 is less than 10 nM.

As for `CNC(=O)c1ccc(N2CCC(N3CCC(c4nc5ccccc5c(=O)[nH]4)C3)CC2)c(C)n1` (single isomer, unassigned) [Compound 125a], the IC50 is less than 10 nM.

For `CNC(=O)c1ccc(N2CCC(N3CCC(c4nc5ccccc5c(=O)[nH]4)C3)CC2)c(C)n1` (single isomer, unassigned) [Compound 125b], the IC50 is less than 10 nM.

With `CNC(=O)c1ccc(N2CCC(N3CCCC(c4ccc(C5CC5)c(=O)[nH]4)C3)CC2)cn1` (single isomer, unassigned) [Compound 126a], the IC50 was less than 10 nM.

Take `CNC(=O)c1ccc(N2CCC(N3CCCC(c4ccc(C5CC5)c(=O)[nH]4)C3)CC2)cn1` (single isomer, unassigned) [Compound 126b]: the IC50 was in the range of 100 to 1000 nM.

Take `CNC(=O)c1ccc(N2CCC(N3CCC(c4cc5cccc(Cl)c5c(=O)[nH]4)C3)CC2)cn1` (single isomer, unassigned) [Compound 128a]: the IC50 fell in the range of 10 to 100 nM.

The next experiment has as its target T1, full length N-terminally FLAG-tagged PARP1. Description: PARP1 probe displacement HTRF assay. The conditions noted are these: PARP1 over PARP2, ratio Kd (PARP2)/Kd (PARP1), probe displacement HTRF.
`O=C(NCCF)c1ccc(N2CCC(N3CCC(c4nc5ccccc5c(=O)[nH]4)C3)CC2)cn1` (single isomer, unassigned) [Compound 117b]: the Selectivity entry is reported as “+++ (+++ indicate a value of at least 100)”.

As for `CCc1nc(C(=O)NC)ccc1N1CCC(N2CCC(c3nc4ccccc4c(=O)[nH]3)C2)CC1` (single isomer, unassigned) [Compound 118a], the Selectivity entry is recorded as “+++ (+++ indicate a value of at least 100)”.

As to `CCc1nc(C(=O)NC)ccc1N1CCC(N2CCC(c3nc4ccccc4c(=O)[nH]3)C2)CC1` (single isomer, unassigned) [Compound 118b], the Selectivity result is reported as “++ (++ indicates a value of 50 to less than 100)”.

As to `CNC(=O)c1ccc(N2CCC(N3CCC(c4nc5c(F)cccc5c(=O)[nH]4)C3)CC2)cn1` (single isomer, unassigned) [Compound 121a], the Selectivity result is given as “+ (+ indicates a value of 10 to less than 50)”.

Consider `CNC(=O)c1ccc(N2CCC(N3CCC(c4nc5c(F)cccc5c(=O)[nH]4)C3)CC2)cn1` (single isomer, unassigned) [Compound 121b], for which the Selectivity result is “+++ (+++ indicate a value of at least 100)”.

Turning to `CCNC(=O)c1ccc(N2CCC(N3CCCC(c4nc5ccccc5c(=O)[nH]4)C3)CC2)cn1` (single isomer, unassigned) [Compound 122a], the Selectivity entry is listed as “+++ (+++ indicate a value of at least 100)”.

In the case of `CCNC(=O)c1ccc(N2CCC(N3CCCC(c4nc5ccccc5c(=O)[nH]4)C3)CC2)cn1` (single isomer, unassigned) [Compound 122b], the Selectivity result is listed as “− (− indicates a value of less than 10)”.

For `NC(=O)c1ccc(N2CCC(N3CCC(c4nc5ccccc5c(=O)[nH]4)C3)CC2)cn1` (single isomer, unassigned) [Compound 123a], the Selectivity entry is “+ (+ indicates a value of 10 to less than 50)”.

For the compound `NC(=O)c1ccc(N2CCC(N3CCC(c4nc5ccccc5c(=O)[nH]4)C3)CC2)cn1` (single isomer, unassigned) [Compound 123b], the Selectivity result is listed as “+++ (+++ indicate a value of at least 100)”.

Take `CNC(=O)c1ccc(N2CCC(N3CCC(c4nc5ccccc5c(=O)[nH]4)C3)CC2)c(C)n1` (single isomer, unassigned) [Compound 125a]: the Selectivity entry is “+++ (+++ indicate a value of at least 100)”.

In the case of `CNC(=O)c1ccc(N2CCC(N3CCC(c4nc5ccccc5c(=O)[nH]4)C3)CC2)c(C)n1` (single isomer, unassigned) [Compound 125b], the Selectivity entry was “+++ (+++ indicate a value of at least 100)”.

In the case of `CNC(=O)c1ccc(N2CCC(N3CCCC(c4ccc(C5CC5)c(=O)[nH]4)C3)CC2)cn1` (single isomer, unassigned) [Compound 126a], the Selectivity result was “+++ (+++ indicate a value of at least 100)”.

With `CNC(=O)c1ccc(N2CCC(N3CCCC(c4ccc(C5CC5)c(=O)[nH]4)C3)CC2)cn1` (single isomer, unassigned) [Compound 126b], the Selectivity result is “+ (+ indicates a value of 10 to less than 50)”.

Take `CNC(=O)c1ccc(N2CCC(N3CCC(c4cc5cccc(Cl)c5c(=O)[nH]4)C3)CC2)cn1` (single isomer, unassigned) [Compound 128a]: the Selectivity entry is reported as “+++ (+++ indicate a value of at least 100)”.

Still in this experiment, the particulars now being: read-out: PARP1 HTRF; binned Kd, PARP1 probe displacement HTRF.
For `O=C(NCCF)c1ccc(N2CCC(N3CCC(c4nc5ccccc5c(=O)[nH]4)C3)CC2)cn1` (single isomer, unassigned) [Compound 117b], the Kd was less than 10 nM.

Take `CCc1nc(C(=O)NC)ccc1N1CCC(N2CCC(c3nc4ccccc4c(=O)[nH]3)C2)CC1` (single isomer, unassigned) [Compound 118a]: the Kd is less than 10 nM.

Consider `CCc1nc(C(=O)NC)ccc1N1CCC(N2CCC(c3nc4ccccc4c(=O)[nH]3)C2)CC1` (single isomer, unassigned) [Compound 118b], for which the Kd lay in the range of 10 to 100 nM.

On to `CNC(=O)c1ccc(N2CCC(N3CCC(c4nc5c(F)cccc5c(=O)[nH]4)C3)CC2)cn1` (single isomer, unassigned) [Compound 121a], for which the Kd lay within 10 to 100 nM.

`CNC(=O)c1ccc(N2CCC(N3CCC(c4nc5c(F)cccc5c(=O)[nH]4)C3)CC2)cn1` (single isomer, unassigned) [Compound 121b]: the Kd was less than 10 nM.

Take `CCNC(=O)c1ccc(N2CCC(N3CCCC(c4nc5ccccc5c(=O)[nH]4)C3)CC2)cn1` (single isomer, unassigned) [Compound 122a]: the Kd was in the range of 10 to 100 nM.

On to `CCNC(=O)c1ccc(N2CCC(N3CCCC(c4nc5ccccc5c(=O)[nH]4)C3)CC2)cn1` (single isomer, unassigned) [Compound 122b], for which the Kd lay in the range of 100 to 1000 nM.

As for `NC(=O)c1ccc(N2CCC(N3CCC(c4nc5ccccc5c(=O)[nH]4)C3)CC2)cn1` (single isomer, unassigned) [Compound 123a], the Kd lay within 10 to 100 nM.

As for `NC(=O)c1ccc(N2CCC(N3CCC(c4nc5ccccc5c(=O)[nH]4)C3)CC2)cn1` (single isomer, unassigned) [Compound 123b], the Kd was less than 10 nM.

On to `CNC(=O)c1ccc(N2CCC(N3CCC(c4nc5ccccc5c(=O)[nH]4)C3)CC2)c(C)n1` (single isomer, unassigned) [Compound 125a], for which the Kd was less than 10 nM.

`CNC(=O)c1ccc(N2CCC(N3CCC(c4nc5ccccc5c(=O)[nH]4)C3)CC2)c(C)n1` (single isomer, unassigned) [Compound 125b]: the Kd was less than 10 nM.

Consider `CNC(=O)c1ccc(N2CCC(N3CCCC(c4ccc(C5CC5)c(=O)[nH]4)C3)CC2)cn1` (single isomer, unassigned) [Compound 126a], for which the Kd was less than 10 nM.

For `CNC(=O)c1ccc(N2CCC(N3CCCC(c4ccc(C5CC5)c(=O)[nH]4)C3)CC2)cn1` (single isomer, unassigned) [Compound 126b], the Kd was in the range of 100 to 1000 nM.

In the case of `CNC(=O)c1ccc(N2CCC(N3CCC(c4cc5cccc(Cl)c5c(=O)[nH]4)C3)CC2)cn1` (single isomer, unassigned) [Compound 128a], the Kd lay in the range of 10 to 100 nM.

Another experiment concerns the target T2, N-terminally FLAG-tagged PARP2 (amino acids 1-583) (Homo sapiens, UniProt Q9UGN5).
T2 construct: N-terminally FLAG-tagged PARP2 (amino acids 1-583)
Nature of the experiment: PARP2 probe displacement HTRF assay. Type of experiment: binding. The conditions noted are these: binned Kd, PARP2 probe displacement HTRF. As for the experimental part: Data analysis was performed identical as for PARP1.
For `O=C(NCCF)c1ccc(N2CCC(N3CCC(c4nc5ccccc5c(=O)[nH]4)C3)CC2)cn1` (single isomer, unassigned) [Compound 117b], the Kd lay in the range of 100 to 1000 nM.

Turning to `CCc1nc(C(=O)NC)ccc1N1CCC(N2CCC(c3nc4ccccc4c(=O)[nH]3)C2)CC1` (single isomer, unassigned) [Compound 118a], the Kd was more than 10000 nM.

In turn, `CCc1nc(C(=O)NC)ccc1N1CCC(N2CCC(c3nc4ccccc4c(=O)[nH]3)C2)CC1` (single isomer, unassigned) [Compound 118b] displayed a Kd of more than 10000 nM.

`CNC(=O)c1ccc(N2CCC(N3CCC(c4nc5c(F)cccc5c(=O)[nH]4)C3)CC2)cn1` (single isomer, unassigned) [Compound 121a] registered a Kd of 100 to 1000 nM.

As for `CNC(=O)c1ccc(N2CCC(N3CCC(c4nc5c(F)cccc5c(=O)[nH]4)C3)CC2)cn1` (single isomer, unassigned) [Compound 121b], the Kd was in the range of 100 to 1000 nM.

As to `CCNC(=O)c1ccc(N2CCC(N3CCCC(c4nc5ccccc5c(=O)[nH]4)C3)CC2)cn1` (single isomer, unassigned) [Compound 122a], the Kd is more than 10000 nM.

On to `CCNC(=O)c1ccc(N2CCC(N3CCCC(c4nc5ccccc5c(=O)[nH]4)C3)CC2)cn1` (single isomer, unassigned) [Compound 122b], for which the Kd was in the range of 1000 to 10000 nM.

In turn, `NC(=O)c1ccc(N2CCC(N3CCC(c4nc5ccccc5c(=O)[nH]4)C3)CC2)cn1` (single isomer, unassigned) [Compound 123a] gave a Kd of 100 to 1000 nM.

As for `NC(=O)c1ccc(N2CCC(N3CCC(c4nc5ccccc5c(=O)[nH]4)C3)CC2)cn1` (single isomer, unassigned) [Compound 123b], the Kd was in the range of 1000 to 10000 nM.

Compound `CNC(=O)c1ccc(N2CCC(N3CCC(c4nc5ccccc5c(=O)[nH]4)C3)CC2)c(C)n1` (single isomer, unassigned) [Compound 125a] registered a Kd of 1000 to 10000 nM.

For `CNC(=O)c1ccc(N2CCC(N3CCC(c4nc5ccccc5c(=O)[nH]4)C3)CC2)c(C)n1` (single isomer, unassigned) [Compound 125b], the Kd is 1000 to 10000 nM.

In turn, `CNC(=O)c1ccc(N2CCC(N3CCCC(c4ccc(C5CC5)c(=O)[nH]4)C3)CC2)cn1` (single isomer, unassigned) [Compound 126a] yielded a Kd of 1000 to 10000 nM.

The compound `CNC(=O)c1ccc(N2CCC(N3CCCC(c4ccc(C5CC5)c(=O)[nH]4)C3)CC2)cn1` (single isomer, unassigned) [Compound 126b] came in with a Kd of more than 10000 nM.

With `CNC(=O)c1ccc(N2CCC(N3CCC(c4cc5cccc(Cl)c5c(=O)[nH]4)C3)CC2)cn1` (single isomer, unassigned) [Compound 128a], the Kd lay in the range of 1000 to 10000 nM.
